From US12059425B2, “Heterocyclic compounds and uses thereof” (Kumquat Biosciences Inc., priority 2022, dated 2024) come the findings set out here.

Experiment [1] deals with T1, K-Ras G12D (Homo sapiens, UniProt P01116, G12D).
T1 construct: made in house; host or cells: E. coli, e.g. BL21 (DE3)
Briefly: PPI-HTRF assay, K-Ras G12D / SOS1 interaction. The experiment is classed as biochemical. The note with it: HTRF, K-Ras G12D; read-out: PPI-HTRF-5 nM (K-Ras G12D IC50). The text has this: (§1) This assay can be also used to assess a selective inhibition or reduction of signaling output of a mutant Ras protein relative to a wildtype, or relative to a different mutant Ras protein. For example, the equilibrium interaction of wildtype Kras or K-Ras mutant (e.g., wildtype or a mutant thereof) with SOS1 (e.g., hSOS1) can be assessed as a proxy or an indication for a subject compound's ability to bind and inhibit Ras protein. HTRF assay detects from (i) a fluorescence resonance energy transfer (FRET) donor (e.g., antiGST-Europium) that is bound to GST-tagged K-Ras mutant to (ii) a FRET acceptor (e.g., anti-6His-XL665) bound to a His-tagged hSOS1.
(§2) The assay buffer can contain ˜5 mM HEPES pH 7.4, ˜150 mM NaCl, ˜1 mM DTT, 0.05% BSA and 0.0025% (v/v) Igepal. A Ras working solution is prepared in an assay buffer containing typically a suitable amount of the protein construct (e.g., GST-tagged K-Ras mutant) and the FRET donor (e.g., antiGST-Eu(K) from Cisbio, France). A SOS1 working solution is prepared in an assay buffer containing suitable amount of the protein construct (e.g., His-hSOS1) and the FRET acceptor (e.g., anti-6His-XL665 from Cisbio, France). A suitable amount of the protein construct will depend on the range of activity or range of IC50 values being detected or under investigation. For detecting IC50 within a range of 500 nM, the protein constructs of the same range of molarity can be utilized.
(§3) A fixed volume of DMSO with or without test compound is transferred into a 384-well plate. Ras working solution is added to all wells of the test plate. SOS1 working solution is added to all wells except for those that are subsequently filled the inhibitor control solution. Upon incubation for about 10 minutes or longer, the fluorescence is measured with a M1000Pro plate reader (Tecan) using HTRF detection (excitation 337 nm, emission 1: 620 nm, emission 2: 665 nm). Compounds are tested in duplicate at different concentrations (for example, 10 μM, 2.5 μM, 0.63 μM, 0.16 μM, 0.04 μM, 0.01 μM test compound). The ratiometric data (i.e., emission 2 divided by emission 1) is used to calculate IC50 values against Ras using GraphPad Prism (GraphPad software). Following this general procedure, samples are tested with or without a subject compound disclosed herein including compounds exemplified in Table 1 to assess their abilities to inhibit a mutant K-Ras relative to another K-Ras (e.g., different mutant or wildtype). Signaling output measured in terms of IC50 values can be obtained, a ratio of IC50 against one mutant relative to another mutant can be calculated. For instance, a selective reduction of K-Ras G12D signaling output can be evidenced by a ratio greater than one. In particular, a selective reduction of K-Ras G12D signaling relative to K-Ras WT signaling is evidenced if the ratio of IC50 (against K-Ras WT) to IC50 (against K-Ras G12D) is greater than 1.

Experiment [2] has as its target T2, K-Ras G12S (Homo sapiens, UniProt P01116, G12S).
T2 construct: made in house; host or cells: E. coli, e.g. BL21 (DE3)
The experiment can be described thus: PPI-HTRF assay, K-Ras G12S / SOS1 interaction. Type of experiment: biochemical. The note with it: read-out: PPI-HTRF-5 nM (K-Ras G12S IC50).
From the text: as §1, §2, §3
Background: TR-FRET usually uses a lanthanide donor and a delayed reading to cut background.

In experiment [3] the target is T3, K-Ras G12V (Homo sapiens, UniProt P01116, G12V).
T3 construct: made in house; host or cells: E. coli, e.g. BL21 (DE3)
T3 sequence (P01116 1-188 isoform P01116-2 G12V): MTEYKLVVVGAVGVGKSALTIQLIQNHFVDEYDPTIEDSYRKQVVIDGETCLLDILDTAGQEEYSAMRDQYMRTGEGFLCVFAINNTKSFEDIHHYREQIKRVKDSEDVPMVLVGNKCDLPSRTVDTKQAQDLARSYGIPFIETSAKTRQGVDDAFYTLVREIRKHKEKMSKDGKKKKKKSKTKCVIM
The experiment can be described thus: PPI-HTRF assay, K-Ras G12V / SOS1 interaction. Type of experiment: biochemical. To be noted: HTRF, K-Ras G12V; read-out: PPI-HTRF-5 nM (K-Ras G12V IC50).
From the text: as §1, §2, §3

Experiment [4] addresses T4, wildtype K-Ras (Homo sapiens, UniProt P01116).
T4 construct: made in house; host or cells: E. coli, e.g. BL21 (DE3)
The experiment can be described thus: PPI-HTRF assay, wildtype K-Ras / SOS1 interaction. Type of experiment: biochemical. To be noted: HTRF, K-Ras wt; read-out: PPI-HTRF-5 nM (K-Ras wt IC50).
From the text: as §1, §2, §3

The test system of experiment [5] is GP2D cells. Briefly: Ras cellular assay, cell proliferation GP2D. The experiment is classed as cell-based. On the procedure: (§4) For example, this assay can be also used to assess selective growth inhibition of a mutant Ras protein relative to a wildtype, or relative to a different mutant Ras protein.
ASPC-1 (ATCC CRL-1682), Panc-10.05 (ATCC CRL-2547), A427, GP2d cell lines or any other cell lines comprising a G12D mutation can be used to assess Ras cellular signaling in vitro, e.g., in response to a compound described herein. For example, ASPC-1 culture medium is prepared with RPMI-1640 and 10% heat-inactivated FBS. Panc-10.05 culture medium is prepared with RPMI-1640, 10 Units/mL human recombinant insulin, and 10% FBS. A427 cell culture is prepared with RPMI-1640 and 10% heat-inactivated FBS. A CellTiter-Glo (CTG) luminescent based assay (Promega) is used to assess growth of the cells, as a measurement of the ability of the compounds herein to inhibit Ras signaling in the cells. The cells (e.g., 800 per well) are seeded in their respective culture medium in standard tissue culture-treated 384-well format plates (Falcon #08-772-116) or ultra-low attachment surface 384-well format plates (S-Bio #MS-9384UZ). The day after plating, cells are treated with a dilution series (e.g., a 9 point 3-fold dilution series) of the compounds herein (e.g., approximately 40 μL final volume per well). Cell viability can be monitored (e.g., approximately 5 days later) according to the manufacturer's recommended instructions, where the CellTiter-Glo reagent is added (e.g., approximately 10 μL), vigorously mixed, covered, and placed on a plate shaker (e.g., approximately for 20 min) to ensure sufficient cell lysis prior to assessment of luminescent signal. The IC50 values are determined using the four parameter fit. The resulting IC50 value is a measurement of the ability of the test compound to reduce cell growth of Ras-driven cells (e.g., tumor cell lines) in vitro and/or in vivo.

For experiment [6], the system named is SW620 cells. The experiment can be described thus: Ras cellular assay, cell proliferation SW620. The experiment is classed as cell-based. The note with it: Homo sapiens, SW-620.
From the text: as §4

T1 sequence (P01116 1-188 isoform P01116-2 G12D): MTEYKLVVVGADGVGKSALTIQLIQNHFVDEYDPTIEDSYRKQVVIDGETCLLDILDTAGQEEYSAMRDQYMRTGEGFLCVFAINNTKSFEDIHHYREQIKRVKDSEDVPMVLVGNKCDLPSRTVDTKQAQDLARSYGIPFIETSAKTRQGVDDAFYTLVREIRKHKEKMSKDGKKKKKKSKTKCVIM
T2 sequence (P01116 1-188 isoform P01116-2 G12S): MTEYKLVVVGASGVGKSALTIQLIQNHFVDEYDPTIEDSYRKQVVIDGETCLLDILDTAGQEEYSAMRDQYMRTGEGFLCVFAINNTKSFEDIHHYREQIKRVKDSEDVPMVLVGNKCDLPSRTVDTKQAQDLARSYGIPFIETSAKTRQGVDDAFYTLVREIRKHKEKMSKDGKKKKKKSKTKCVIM
T4 sequence (P01116 1-188 isoform P01116-2): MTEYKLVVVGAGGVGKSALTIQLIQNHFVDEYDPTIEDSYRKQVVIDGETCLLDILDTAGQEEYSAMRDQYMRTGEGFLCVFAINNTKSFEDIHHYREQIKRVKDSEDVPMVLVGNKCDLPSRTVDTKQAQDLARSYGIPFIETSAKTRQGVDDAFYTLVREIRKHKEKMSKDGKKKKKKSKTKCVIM

Broadly, the IC50 is the concentration that gives 50% inhibition. `N#Cc1c(N)sc2c(F)ccc(-c3c(Cl)c4c5c(nc(OC[C@@]67CCCN6C[C@H](F)C7)nc5c3F)N3CCC[C@@H]3CC(CO)O4)c12` (single isomer, unassigned) [compound 177]: the IC50 in experiment [1], in experiment [2], in experiment [3], in experiment [4], in experiment [5] and in experiment [6] was < 5 µM throughout.

Consider `CC(CN(C)C)N1c2nc(OC[C@@]34CCCN3C[C@H](F)C4)nc3c(F)c(-c4ccc(F)c5sc(N)c(C#N)c45)c(Cl)c(c23)OCC2COCC21` (stereo partly drawn) [compound 102, 2-amino-4-(6-chloro-12-(1-(dimethylamino)propan-2-yl)-4-fluoro-2-(((2R,7aS)-2-fluorotetrahydro-1H-pyrrolizin-7a(5H)-yl)methoxy)-8a,9,11a,12-tetrahydro-8H,11H-furo[3′,4′:6,7][1,5]oxazocino[4,3,2-de]quinazolin-5-yl)-7-fluorobenzo[b]thiophene-3-carbonitrile], for which the IC50 is < 5 µM in experiment [1]; < 5 µM in experiment [2]; < 5 µM in experiment [3]; < 5 µM in experiment [4]; < 5 µM in experiment [5]; > 5 µM in experiment [6].

For the compound `CC1Oc2c(Cl)c(-c3ccc(F)c4sc(N)c(C#N)c34)c(F)c3nc(OC[C@@]45CCCN4C[C@H](F)C5)nc(c23)N(C)C2COCC12` (stereo partly drawn) [compound 104], the IC50 in experiment [1], in experiment [2], in experiment [3], in experiment [4], in experiment [5] and in experiment [6] was < 5 µM each time.

Consider `CN(C)CCN1c2nc(OC[C@@]34CCCN3C[C@H](F)C4)nc3c(F)c(-c4ccc(F)c5sc(N)c(C#N)c45)c(Cl)c(c23)OCC2COCC21` (stereo partly drawn) [compound 106, 2-amino-4-(6-chloro-12-(2-(dimethylamino)ethyl)-4-fluoro-2-(((2R,7aS)-2-fluorotetrahydro-1H-pyrrolizin-7a(5H)-yl)methoxy)-8a,9,11a,12-tetrahydro-8H,11H-furo[3′,4′:6,7][1,5]oxazocino[4,3,2-de]quinazolin-5-yl)-7-fluorobenzo[b]thiophene-3-carbonitrile], for which the IC50 in experiment [1], in experiment [2], in experiment [3], in experiment [4], in experiment [5] and in experiment [6] was < 5 µM each time.

As to `CNCC(C)N1c2nc(OC[C@@]34CCCN3C[C@H](F)C4)nc3c(F)c(-c4ccc(F)c5sc(N)c(C#N)c45)c(Cl)c(c23)OCC2COCC21` (stereo partly drawn) [compound 109, 2-amino-4-(6-chloro-4-fluoro-2-(((2R,7aS)-2-fluorotetrahydro-1H-pyrrolizin-7a(5H)-yl)methoxy)-12-(1-(methylamino)propan-2-yl)-8a,9,11a,12-tetrahydro-8H,11H-furo[3′,4′:6,7][1,5]oxazocino[4,3,2-de]quinazolin-5-yl)-7-fluorobenzo[b]thiophene-3-carbonitrile], the IC50 was < 5 µM in experiment [1]; < 5 µM in experiment [2]; < 5 µM in experiment [3]; < 5 µM in experiment [4]; > 5 µM in experiment [5]; > 5 µM in experiment [6].

As for `N#Cc1c(N)sc2c(F)ccc(-c3c(Cl)c4c5c(nc(OC[C@@]67CCCN6C[C@H](F)C7)nc5c3F)N3C[C@H](NC(=O)[C@H]5CN5)C[C@H]3CO4)c12` [compound 111, (2R)-N-((2R,12aS)-9-(2-amino-3-cyano-7-fluorobenzo[b]thiophen-4-yl)-10-chloro-8-fluoro-6-(((2R,7aS)-2-fluorotetrahydro-1H-pyrrolizin-7a(5H)-yl)methoxy)-2,3,12,12a-tetrahydro-1H-pyrrolo[2′,1′:,4][1,4]oxazepino[5,6,7-de]quinazolin-2-yl)aziridine-2-carboxamide], the IC50 in experiment [1] is < 5 µM; in experiment [2], < 5 µM; in experiment [3], < 5 µM; in experiment [4], < 5 µM; in experiment [5], > 5 µM; in experiment [6] it was > 5 µM.

For `N#Cc1c(N)sc2c(F)ccc(-c3c(Cl)c4c5c(nc(OC[C@@]67CCCN6C[C@H](F)C7)nc5c3F)N(CC(F)F)CC3COCC3O4)c12` (stereo partly drawn) [compound 112, 2-amino-4-(1-chloro-7-(2,2-difluoroethyl)-3-fluoro-5-(((2R,7aS)-2-fluorotetrahydro-1H-pyrrolizin-7a(5H)-yl)methoxy)-7,8,8a,9,11,11a-hexahydrofuro[3′,4′:7,8][1,5]oxazocino [4,3,2-de]quinazolin-2-yl)-7-fluorobenzo[b]thiophene-3-carbonitrile], the IC50 in experiment [1] is < 5 µM; in experiment [2], < 5 µM; in experiment [3], < 5 µM; in experiment [4] it was < 5 µM; in experiment [5], > 5 µM; in experiment [6] it was < 5 µM.

Regarding `CN1CC2COCC2Oc2c(Cl)c(-c3ccc(F)c4sc(N)c(C#N)c34)c(F)c3nc(OC[C@@]45CCCN4C[C@H](F)C5)nc1c23` (stereo partly drawn) [compound 113, 2-amino-4-(1-chloro-3-fluoro-5-(((2R,7aS)-2-fluorotetrahydro-1H-pyrrolizin-7a(5H)-yl)methoxy)-7-methyl-7,8,8a,9,11,11a-hexahydrofuro[3′,4′:7,8][1,5]oxazocino[4,3,2-de]quinazolin-2-yl)-7-fluorobenzo[b]thiophene-3-carbonitrile], the IC50 in experiment [1], in experiment [2], in experiment [3], in experiment [4], in experiment [5] and in experiment [6] was < 5 µM throughout.
